Measurements from the NIST ThermoML archive (doi:10.1021/je400332j).

Tests used:
[1] = 101.33 kPa, Liquid; for viscosity: Concentric cylinders viscometry; for mass density: Vibrating tube method
[2] = xn = mol fraction of the nth substance listed; conditions: 101 kPa, Liquid; for viscosity: Concentric cylinders viscometry; for mass density: Vibrating tube method

CCn1cc[n+](C)c1.F[B-](F)(F)F [1-ethyl-3-methylimidazolium tetrafluoroborate]
[1]
Conditions | mass density [kg/m3] | viscosity [mPa·s]
293.15 K | 1283.9 | 45.47
298.15 K | 1280 | 37.46
303.15 K | 1276.2 | 31.29
308.15 K | 1272.4 | 26.45
313.15 K | 1268.6 | 22.61
318.15 K | 1264.9 | 19.51
323.15 K | 1261.2 | 17
328.15 K | 1257.4 | 14.92
333.15 K | 1253.8 | 13.2
338.15 K | 1250.1 | 11.76
343.15 K | 1246.5 | 10.54

CCn1cc[n+](C)c1.F[B-](F)(F)F [1-ethyl-3-methylimidazolium tetrafluoroborate] + CCCCCCn1cc[n+](C)c1.F[B-](F)(F)F
[2], x1 = 1
Conditions | mass density [kg/m3] | viscosity [mPa·s]
293.15 K | 1283.9 | 45.47
298.15 K | 1280 | 37.46
303.15 K | 1276.2 | 31.29
308.15 K | 1272.4 | 26.45
313.15 K | 1268.6 | 22.61
318.15 K | 1264.9 | 19.51
323.15 K | 1261.2 | 17
328.15 K | 1257.4 | 14.92
333.15 K | 1253.8 | 13.2
338.15 K | 1250.1 | 11.76
343.15 K | 1246.5 | 10.54

CCn1cc[n+](C)c1.F[B-](F)(F)F [1-ethyl-3-methylimidazolium tetrafluoroborate] + CCCn1cc[n+](C)c1.F[B-](F)(F)F
[2], x1 = 1
Conditions | mass density [kg/m3] | viscosity [mPa·s]
293.15 K | 1283.9 | 45.47
298.15 K | 1280 | 37.46
303.15 K | 1276.2 | 31.29
308.15 K | 1272.4 | 26.45
313.15 K | 1268.6 | 22.61
318.15 K | 1264.9 | 19.51
323.15 K | 1261.2 | 17
328.15 K | 1257.4 | 14.92
333.15 K | 1253.8 | 13.2
338.15 K | 1250.1 | 11.76
343.15 K | 1246.5 | 10.54

CCCCCCn1cc[n+](C)c1.F[B-](F)(F)F [1-hexyl-3-methylimidazolium tetrafluoroborate]
[1]
Conditions | mass density [kg/m3] | viscosity [mPa·s]
293.15 K | 1147.5 | 280.4
298.15 K | 1144.1 | 206.3
303.15 K | 1140.6 | 154.9
308.15 K | 1137.2 | 118.7
313.15 K | 1133.7 | 92.56
318.15 K | 1130.3 | 73.37
323.15 K | 1127 | 59.03
328.15 K | 1123.6 | 48.16
333.15 K | 1120.2 | 39.71
338.15 K | 1116.8 | 33.21
343.15 K | 1113.4 | 28.03

CCCCCCn1cc[n+](C)c1.F[B-](F)(F)F [1-hexyl-3-methylimidazolium tetrafluoroborate] + CCCn1cc[n+](C)c1.F[B-](F)(F)F
[2], x2 = 0
Conditions | mass density [kg/m3] | viscosity [mPa·s]
293.15 K | 1147.5 | 280.4
298.15 K | 1144.1 | 206.3
303.15 K | 1140.6 | 154.9
308.15 K | 1137.2 | 118.7
313.15 K | 1133.7 | 92.56
318.15 K | 1130.3 | 73.37
323.15 K | 1127 | 59.03
328.15 K | 1123.6 | 48.16
333.15 K | 1120.2 | 39.71
338.15 K | 1116.8 | 33.21
343.15 K | 1113.4 | 28.03

CCCn1cc[n+](C)c1.F[B-](F)(F)F [1-propyl-3-methylimidazolium tetrafluoroborate]
[1]
Conditions | mass density [kg/m3] | viscosity [mPa·s]
293.15 K | 1239.3 | 95.44
298.15 K | 1235.7 | 74.04
303.15 K | 1232 | 58.59
308.15 K | 1228.3 | 47.16
313.15 K | 1224.7 | 38.56
318.15 K | 1221 | 31.98
323.15 K | 1217.4 | 26.83
328.15 K | 1213.8 | 22.77
333.15 K | 1210.2 | 19.54
338.15 K | 1206.6 | 16.92
343.15 K | 1203 | 14.77
